Reference: patent publication US20040260318A1, “Anastomotic connector devices” (Angiotech International AG, priority 2003, published 2004)

Legend:
[1] = tested on: Primary human smooth muscle cells; test: Screening assay for smooth muscle cell migration (Boyden chamber, rhPDGF-BB chemotaxis); format: cell-based; details: 4 hours migration toward rhPDGF-BB 10 ng/mL, FIG. 8
Method: Primary human smooth muscle cells are starved of serum in smooth muscle cell basal media containing insulin and human basic fibroblast growth factor (bFGF) for 16 hours prior to the assay. […] A 100 μL volume of smooth muscle cells (approximately 20,000-25,000 cells) is added to the top of a Boyden chamber assembly (Chemicon QCM Chemotaxis 96-well migration plate). To the bottom wells, the chemotactic agent, recombinant human platelet derived growth factor (rhPDGF-BB) is added at a concentration of 10 ng/mL in a total volume of 150 μL. Paclitaxel is prepared in DMSO at a concentration of 10^−2 M and serially diluted 10-fold to give a range of stock concentrations (10^−8 M to 10^−2 M). Paclitaxel is added to cells by directly adding paclitaxel DMSO stock solutions, prepared earlier, at a 1/1000 dilution, to the cells in the top chamber. […]
At the end of the 4 hour period, cells in the top chamber are discarded and the smooth muscle cells attached to the underside of the filter are detached for 30 minutes at 37° C. in Cell Detachment Solution (Chemicon). […] Relative fluorescence units from triplicate wells are averaged after subtracting background fluorescence (control chamber without chemoattractant) and average number of cells migrating is obtained from a standard curve of smooth muscle cells serially diluted from 25,000 cells/well down to 98 cells/well.

collagenase (MMP-1) mRNA = test: IL-1 induced MMP-1 (collagenase) mRNA expression in chondrocytes, Northern blot
Solubility in water = format: physicochemical
[2] = tested on: AP-1 DNA binding activity; test: IL-1 induced AP-1 DNA binding activity, gel mobility shift assay; format: cell-based; details: chondrocyte lysates, pretreated at 10^−7 to 10^−5 M for 24 hours
Method: Binding activity was assayed with a radiolabeled human AP-1 sequence probe and gel mobility shift assay. Extracts from chondrocytes untreated or treated with various amounts of paclitaxel (10^−7 to 10^−5 M) followed by IL-1β (20 ng/ml) were incubated with excess probe on ice for 30 minutes, followed by non-denaturing gel electrophoresis. The “com” lane contains excess unlabeled AP-1 oligonucleotide.

[3] = tested on: Chick Chorioallantoic Membrane; test: Chick chorioallantoic membrane (CAM) angiogenesis assay; details: for Inhibition/n: 48 hours
[4] = tested on: AP-1 transcriptional activity; test: IL-1 stimulated AP-1 driven CAT reporter gene activity in chondrocytes; format: cell-based; details: transfected chondrocytes, concentration dependent, 10^−7 to 10^−5 M
From the text: The results shown are representative of three independent experiments.

stromelysin (MMP-3) mRNA = test: IL-1 induced MMP-3 (stromelysin) mRNA expression in chondrocytes, Northern blot
[5] = chondrocytes pretreated for 24 hours, IL-1 induced

CC(=O)O[C@H]1C(=O)[C@@]2(C)[C@H]([C@H](OC(=O)c3ccccc3)[C@]3(O)C[C@H](OC(=O)[C@H](O)[C@@H](NC(=O)c4ccccc4)c4ccccc4)C(C)=C1C3(C)C)[C@]1(OC(C)=O)CO[C@@H]1C[C@@H]2O [paclitaxel, 5β,20-Epoxy-1,2Alpha,4,7β,10β,13Alpha-hexahydroxytax-11-en-9-one-4,10-diacetate-2-benzoate-13-(Alpha-phenylhippurate)]
IC50 [1]: 0.76 nM | concentration inhibiting collagenase expression in vitro (collagenase (MMP-1) mRNA): 10^−6 M | inhibition of collagenase mRNA expression (collagenase (MMP-1) mRNA; at 10^−5 M): complete inhibition | levels of collagenase mRNA (collagenase (MMP-1) mRNA; [5]): significantly reduced | solubility in water (Solubility in water): insoluble in water | IL-1 induced AP-1 binding activity to DNA [2]: decreased | Inhibition/n ([3]; 0.25 ug in methylcellulose (10 ul) disk, CAMs with positive antiangiogenesis response / n): 2/11 | Inhibition/n ([3]; 0.5 ug in methylcellulose (10 ul) disk): 6/11 | Inhibition/n ([3]; 1 ug in methylcellulose (10 ul) disk): 6/15 | Inhibition/n ([3]; 5 ug in methylcellulose (10 ul) disk): 20/27 | Inhibition/n ([3]; 10 ug in methylcellulose (10 ul) disk): 16/21 | Inhibition/n ([3]; 30 ug in methylcellulose (10 ul) disk): 31/31 | angiogenesis in the CAM ([3]; 48 hours after application): inhibited | avascular gradient scale, maximal avascular zone ([3]; within 48 hours, depending on concentration): 3 | IL-1 induced AP-1 reporter gene CAT activity [4]: reduced | concentration inhibiting stromelysin expression in vitro (stromelysin (MMP-3) mRNA): 10^−6 M | inhibition of stromelysin mRNA expression (stromelysin (MMP-3) mRNA; at 10^−5 M): complete inhibition | levels of stromelysin mRNA (stromelysin (MMP-3) mRNA; [5]): significantly reduced
